Test results as given in patent publication US20040149200A1, “Crystals of an oligosaccharides and process for preparation thereof” (priority 2001, published 2004).

Test: Storage stability of Oligosaccharide Crystals (I) and freeze-dried Oligosaccharide (I) powders (residual rate by HPLC)
Assay type: physicochemical
Conditions: 105° C. in the atmosphere under ordinary pressure
Protocol: The storage stability of Oligosaccharide Crystals (I) obtained in Examples 1 to 3 and freeze-dried Oligosaccharide (I) powders obtained in Reference Examples 1 to 3 was examined by keeping them at 105° C. in the atmosphere under ordinary pressure for 20 days and measuring the residual rate of Oligosaccharides (I).
The residual rate of Oligosaccharides (I) in the samples was measured by high performance liquid chromatography (HPLC) and expressed in terms of HPLC purity (%)
Measurement conditions for HPLC are as follows.
Analyzer: product of Dionex Corporation
Column temperature: 30° C.
Mobile phase: 10-100% aqueous solution of NaOH
(500 mmol/L) (Gradient elution in 11 minutes)
Detection: electrochemical detection (PAD method)

| SMILES | Residual rate of oligosaccharides: HPLC purity (%) (days that passed: 0) | Residual rate of oligosaccharides: HPLC purity (%) (days that passed: 1) | Residual rate of oligosaccharides: HPLC purity (%) (days that passed: 4) | Residual rate of oligosaccharides: HPLC purity (%) (days that passed: 7) | Residual rate of oligosaccharides: HPLC purity (%) (days that passed: 20) |
| --- | --- | --- | --- | --- | --- |
| CC(=O)N[C@H]1[C@H](O[C@H]2[C@@H](O)[C@@H](CO)O[C@@H](O[C@H]3[C@H](O)[C@@H](O)C(O)O[C@@H]3CO)[C@@H]2O)O[C@H](CO)[C@@H](O)[C@@H]1O (stereo partly drawn) [Crystals No. 1, GlcNAcβ1, 3Galβ1, 4Glc] | 98.0% | 99.7% | 99.7% | 99.7% | 98.9% |
| CC(=O)N[C@H]1[C@H](O[C@H]2[C@@H](O)[C@@H](CO)O[C@@H](O[C@H]3[C@H](O)[C@@H](O)C(O)O[C@@H]3CO)[C@@H]2O)O[C@H](CO)[C@@H](O[C@@H]2O[C@H](CO)[C@H](O)[C@H](O[C@@H]3O[C@H](CO)[C@@H](O)[C@H](O)[C@H]3NC(C)=O)[C@H]2O)[C@@H]1O (stereo partly drawn) [Freeze-dried GlcNAcβ1, 3Gal-β1, 4GlcNAcβ1, 3Galβ1, 4Glc powd] [GlcNAcβ1,3Galβ1,4GlcNAcβ1,3Galβ1,4Glc] | 98.6% | 98.2% | 97.4% | 95.4% | 85.2% |
| CC(=O)N[C@H]1[C@H](O[C@H]2[C@@H](O)[C@@H](CO)O[C@@H](O[C@H]3[C@H](O)[C@@H](O)C(O)O[C@@H]3CO)[C@@H]2O)O[C@H](CO)[C@@H](O[C@@H]2O[C@H](CO)[C@H](O)[C@H](O[C@@H]3O[C@H](CO)[C@@H](O)[C@H](O)[C@H]3NC(C)=O)[C@H]2O)[C@@H]1O (stereo partly drawn) [Crystals No. 3, GlcNAcβ1, 3Galβ1, 4GlcNAcβ1, 3Galβ1, 4Glc] | 98.8% | 99.3% | 99.0% | 99.0% | 99.3% |
| CC(=O)N[C@H]1[C@H](O[C@H]2[C@@H](O)[C@@H](CO)O[C@@H](O[C@H]3[C@H](O)[C@@H](O)C(O)O[C@@H]3CO)[C@@H]2O)O[C@H](CO)[C@@H](O[C@@H]2O[C@H](CO)[C@H](O)[C@H](O)[C@H]2O)[C@@H]1O (stereo partly drawn) [Freeze-dried Galβ1, 4GlcNAc-β1, 3Galβ1, 4Glc powders] [Galβ1,4GlcNAcβ1,3Galβ1,4Glc] | 99.3% | 98.6% | 97.6% | 96.2% | 90.9% |
| CC(=O)N[C@H]1[C@H](O[C@H]2[C@@H](O)[C@@H](CO)O[C@@H](O[C@H]3[C@H](O)[C@@H](O)C(O)O[C@@H]3CO)[C@@H]2O)O[C@H](CO)[C@@H](O)[C@@H]1O (stereo partly drawn) [Freeze-dried GlcNAcβ1, 3Gal-β1, 4Glc powders] [GlcNAcβ1,3Galβ1,4Glc] | 99.8% | 99.7% | 97.0% | 98.8% | 93.8% |
| CC(=O)N[C@H]1[C@H](O[C@H]2[C@@H](O)[C@@H](CO)O[C@@H](O[C@H]3[C@H](O)[C@@H](O)C(O)O[C@@H]3CO)[C@@H]2O)O[C@H](CO)[C@@H](O[C@@H]2O[C@H](CO)[C@H](O)[C@H](O)[C@H]2O)[C@@H]1O (stereo partly drawn) [Crystals No. 2, Galβ1, 4GlcNAcβ1, 3Galβ1, 4Glc] | 99.3% | 99.0% | 99.2% | 99.0% | 98.8% |
